The numbers were not newly measured in patent US20030133872A1, “Radiopharmaceutical agent for the treatment of early stage cancer” (priority 2001, published 2003), which cites them from elsewhere.

The conditions of the data set: Woolfenden et al., Int. J. Nucl. Med. 10 (4), 251-256 (1983).

As for `[153Sm+3].[Cl-].[Cl-].[Cl-]` [^153Sm-chloride], the liver uptake result is given as “high liver uptake”.
